Test results: US20240067693A1, “POLYPEPTIDES AND USES THEREOF” (MEDIMMUNE LIMITED, priority 2020, published 2024)
Numbered stars: 1 amine (or outer) side, 2 acyl side, 3 side chain; on linkers, the order of the positions; unused ones are H or OH. Bridge positions count the residues as written; N and C are the ends. Square brackets hold non-standard residues; d marks the D form. Side chains are listed from the residue outwards. Peptide text beside a SMILES is read from it. * marks the point of attachment. C18 diacid = O=C(O)CCCCCCCCCCCCCCCCC(=O)*; γGlu = O=C(O)[C@H](CCC(=O)[*:2])N[*:1]; αMeF = C[C@](N)(Cc1ccccc1)C(=O)O; αMeS = C[C@](N)(CO)C(=O)O; Dab = NCC[C@H](N)C(=O)O; Aib = CC(C)(N)C(=O)O

Tests used:
[1] = target: T1, human amylin receptor (calcitonin receptor co-expressed with receptor activity modifying protein, RAMP3) (hAMYR3) (Homo sapiens, UniProt O60896+P30988); assay: cAMP production in 1321N1 cells with stable recombinant expression of human amylin receptor (hAMYR3); format: cell-based; conditions: for Ratio (selectivity hAMYR vs hCTR, ratio of EC50 values at the two receptors): EC50 hCTR / EC50 hAMYR3; for EC50: cAMP, 1321N1 cells, assay buffer with 0.1% BSA, read-out: EC50 (pM) hAMYR3
T1 construct: expressed in transfected cells
T1 sequence (P30988 25-474): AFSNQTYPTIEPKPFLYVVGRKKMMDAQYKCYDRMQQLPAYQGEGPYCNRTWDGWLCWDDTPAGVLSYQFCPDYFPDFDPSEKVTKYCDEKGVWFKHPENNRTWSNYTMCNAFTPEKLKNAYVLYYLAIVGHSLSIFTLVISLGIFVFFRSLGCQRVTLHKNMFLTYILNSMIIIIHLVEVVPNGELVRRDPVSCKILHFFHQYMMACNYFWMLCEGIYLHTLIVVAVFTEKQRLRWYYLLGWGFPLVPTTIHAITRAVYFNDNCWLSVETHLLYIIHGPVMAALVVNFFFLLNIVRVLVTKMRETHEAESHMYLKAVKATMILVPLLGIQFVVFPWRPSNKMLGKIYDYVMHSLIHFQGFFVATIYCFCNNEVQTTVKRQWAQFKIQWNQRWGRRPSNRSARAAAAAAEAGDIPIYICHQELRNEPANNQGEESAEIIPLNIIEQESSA
T1 sequence (O60896 24-148 partner): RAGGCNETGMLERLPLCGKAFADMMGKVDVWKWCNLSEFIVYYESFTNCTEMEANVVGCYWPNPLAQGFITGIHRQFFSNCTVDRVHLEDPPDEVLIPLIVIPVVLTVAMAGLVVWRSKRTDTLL
Protocol: (§1) The functional activities of lipidated pramlintide analogue peptides, such as cAMP production, were tested in 1321N1 cell line with stable recombinant expression of human calcitonin receptor (hCTR) or human amylin receptor (calcitonin receptor co-expressed with receptor activity modifying protein, RAMP3) (hAMYR3) or HEK cells with stable recombinant expression of rat calcitonin receptor (rat CTR) or rat amylin receptor (calcitonin receptor co-expressed with receptor activity modifying protein, RAMP3) (Rat AMYR3).
(§2) Cryopreserved cell stock was thawed rapidly in a water-bath, suspended in assay buffer (0.1% BSA (Sigma # A3059) in HBSS (Sigma # H8264) with 25 mM HEPES, pH 7.4 and containing 0.5 mM IB MX (Sigma# 17018)) and spun at 240×g for 5 minutes. Cells were re-suspended in assay buffer at a batch-dependent optimized concentration (e.g. hCTR cells at 0.125×10^5 cells/mL, hAMYR3 cells at 0.125×10^5 cells/mL, rat CTR cells at 1x10^5 cells/mL, rat AMYR3 at 2×10^5 cells/mL).
(§3) The test peptide stock was prepared in DMSO and diluted in assay buffer to reach stated concentrations and transferred in duplicates into a 384-black shallow well microtitre assay plate (Corning # 3676). Cells were added to the assay plate, incubated at room temperature for 30 minutes and the cAMP level measured using cAMP dynamic 2 HTRF kit (Cisbio, Cat # 62AM4PEJ), following the two step protocol as per manufacturer's recommendations. The plates were read on an Envision (Perkin Elmer) using excitation wavelength of 320 nm and emission wavelengths of 620nm & 665 nm.
(§4) Data was transformed to % Delta F as described in the manufacturer's guidelines and analyzed as percent activation of maximal amylin or calcitonin effect by 4-parameter logistic fit to determine EC50 values. The selectivity of a peptide to hAMYR vs hCTR is defined as a ratio of EC50 values at the two receptors.

[2] = target: T2, human calcitonin receptor (hCTR) (Homo sapiens, UniProt P30988); assay: cAMP production in 1321N1 cells with stable recombinant expression of human calcitonin receptor (hCTR); format: cell-based; conditions: cAMP, 1321N1 cells, assay buffer with 0.1% BSA; read-out: EC50 (pM) hCTR
T2 construct: expressed in transfected cells
T2 sequence (P30988 25-474): T1 sequence (P30988 25-474)
Protocol: as §1, §2, §3, §4

| Ratio (selectivity hAMYR vs hCTR, ratio of EC50 values at the two receptors) [1] | EC50 [1] [pM] | EC50 [2] [pM] | SMILES |
| --- | --- | --- | --- |
| 40 | 162 | 6540 | CC[C@H](C)[C@H](NC(=O)[C@@H]1CCCN1C(=O)CNC(=O)[C@H](Cc1ccccc1)NC(=O)[C@H](CC(N)=O)NC(=O)[C@H](CC(N)=O)NC(=O)[C@](C)(CO)NC(=O)[C@H](CO)NC(=O)[C@H](Cc1c[nH]cn1)NC(=O)[C@@H](NC(=O)[C@H](CC(C)C)NC(=O)[C@H](Cc1ccccc1)NC(=O)[C@H](CC(N)=O)NC(=O)[C@H](C)NC(=O)[C@H](CC(C)C)NC(=O)[C@H](CCCNC(=N)N)NC(=O)[C@H](CCC(N)=O)NC(=O)[C@@H](NC(=O)[C@H](C)NC(=O)[C@@H]1CSSC[C@H](NC(=O)[C@@H](N)CCCCNC(=O)CC[C@H](NC(=O)CC[C@H](NC(=O)CCCCCCCCCCCCCCCCC(=O)O)C(=O)O)C(=O)O)C(=O)N[C@@H](CC(N)=O)C(=O)N[C@@H]([C@@H](C)O)C(=O)N[C@@H](C)C(=O)N[C@@H]([C@@H](C)O)C(=O)N1)[C@@H](C)O)C(C)C)C(=O)N[C@@H](CC(C)C)C(=O)N1CCC[C@H]1C(=O)N1CCC[C@H]1C(=O)N[C@H](C(=O)N[C@@H](CC(N)=O)C(=O)N[C@H](C(=O)NCC(=O)N[C@@H](CO)C(=O)N[C@@H](CC(N)=O)C(=O)N[C@H](C(=O)N[C@@H](Cc1ccc(O)cc1)C(N)=O)[C@@H](C)O)C(C)C)[C@@H](C)O [Peptide 22, K(γE-γE-C18diacid)[CNTATC]ATQRLANFLVHS(αMeSer)NNFGPILPPTNVGSNTY-amide] (H-K([γGlu-γGlu-C18 diacid])CNTATCATQRLANFLVHS[αMeS]NNFGPILPPTNVGSNTY-NH2; disulfide 2-7; N-terminus assumed) |
| 2 | 238 | 589 | CC[C@H](C)[C@H](NC(=O)[C@@H]1CCCN1C(=O)CNC(=O)[C@](C)(Cc1ccccc1)NC(=O)[C@H](CC(N)=O)NC(=O)[C@H](CC(N)=O)NC(=O)[C@H](CO)NC(=O)[C@H](CO)NC(=O)[C@H](Cc1c[nH]cn1)NC(=O)[C@@H](NC(=O)[C@H](CC(C)C)NC(=O)[C@H](Cc1ccccc1)NC(=O)[C@H](CC(N)=O)NC(=O)[C@H](C)NC(=O)[C@H](CC(C)C)NC(=O)[C@H](CCCNC(=N)N)NC(=O)[C@H](CCC(N)=O)NC(=O)[C@@H](NC(=O)[C@H](C)NC(=O)[C@@H]1CSSC[C@H](NC(=O)[C@@H](N)CCCCNC(=O)CC[C@H](NC(=O)CC[C@H](NC(=O)CCCCCCCCCCCCCCCCC(=O)O)C(=O)O)C(=O)O)C(=O)N[C@@H](CC(N)=O)C(=O)N[C@@H]([C@@H](C)O)C(=O)N[C@@H](C)C(=O)N[C@@H]([C@@H](C)O)C(=O)N1)[C@@H](C)O)C(C)C)C(=O)N[C@@H](CC(C)C)C(=O)N1CCC[C@H]1C(=O)N1CCC[C@H]1C(=O)N[C@H](C(=O)N[C@@H](CCC(=O)O)C(=O)N[C@H](C(=O)NCC(=O)N[C@@H](CO)C(=O)N[C@@H](CC(N)=O)C(=O)N[C@H](C(=O)N[C@@H](Cc1ccc(O)cc1)C(N)=O)[C@@H](C)O)C(C)C)[C@@H](C)O [Peptide 23, K(γE-γE-C18diacid)[CNTATC]ATQRLANFLVHSSNN(αMePhe)GPILPPTEVGSNTY-amide] (H-K([γGlu-γGlu-C18 diacid])CNTATCATQRLANFLVHSSNN[αMeF]GPILPPTEVGSNTY-NH2; disulfide 2-7) |
| 7 | 409 | 2800 | CC[C@H](C)[C@H](NC(=O)[C@@H]1CCCN1C(=O)CNC(=O)[C@](C)(Cc1ccccc1)NC(=O)[C@H](CC(N)=O)NC(=O)[C@H](CC(N)=O)NC(=O)[C@H](CO)NC(=O)[C@H](CO)NC(=O)[C@H](Cc1c[nH]cn1)NC(=O)C(C)(C)NC(=O)[C@H](CC(C)C)NC(=O)[C@H](Cc1ccccc1)NC(=O)[C@H](CC(N)=O)NC(=O)[C@H](C)NC(=O)[C@H](CC(C)C)NC(=O)[C@H](CCCNC(=N)N)NC(=O)[C@H](CCC(N)=O)NC(=O)[C@@H](NC(=O)[C@H](C)NC(=O)[C@@H]1CSSC[C@H](NC(=O)[C@@H](N)CCCCNC(=O)CC[C@H](NC(=O)CC[C@H](NC(=O)CCCCCCCCCCCCCCCCC(=O)O)C(=O)O)C(=O)O)C(=O)N[C@@H](CC(N)=O)C(=O)N[C@@H]([C@@H](C)O)C(=O)N[C@@H](C)C(=O)N[C@@H]([C@@H](C)O)C(=O)N1)[C@@H](C)O)C(=O)N[C@@H](CC(C)C)C(=O)N1CCC[C@H]1C(=O)N1CCC[C@H]1C(=O)N[C@H](C(=O)N[C@@H](CC(N)=O)C(=O)N[C@H](C(=O)NCC(=O)N[C@@H](CO)C(=O)N[C@@H](CC(N)=O)C(=O)N[C@H](C(=O)N[C@@H](Cc1ccc(O)cc1)C(N)=O)[C@@H](C)O)C(C)C)[C@@H](C)O [Peptide 26, K(γE-γE-C18diacid)[CNTATC]ATQRLANFL(Aib)HSSNN(αMePhe)GPILPPTNVGSNTY-amide] (H-K([γGlu-γGlu-C18 diacid])CNTATCATQRLANFL[Aib]HSSNN[αMeF]GPILPPTNVGSNTY-NH2; disulfide 2-7) |
| 5 | 134 | 731 | CC[C@H](C)[C@@H]1NC(=O)[C@H](CC(N)=O)NC(=O)[C@@H](NC(=O)[C@@H](N)CCCCNC(=O)CC[C@H](NC(=O)CC[C@H](NC(=O)CCCCCCCCCCCCCCCCC(=O)O)C(=O)O)C(=O)O)CSSC[C@@H](C(=O)N[C@@H](C)C(=O)N[C@H](C(=O)N[C@@H](CCC(N)=O)C(=O)N[C@@H](CCCNC(=N)N)C(=O)N[C@@H](CC(C)C)C(=O)N[C@@H](C)C(=O)N[C@@H](CC(N)=O)C(=O)N[C@@H](Cc2ccccc2)C(=O)N[C@@H](CC(C)C)C(=O)N[C@H](C(=O)N[C@@H](Cc2c[nH]cn2)C(=O)N[C@@H](CO)C(=O)N[C@@H](CO)C(=O)N[C@@H](CCN)C(=O)N[C@@H](CC(N)=O)C(=O)N[C@@H](Cc2ccccc2)C(=O)NCC(=O)N2CCC[C@H]2C(=O)N[C@H](C(=O)N[C@@H](CC(C)C)C(=O)N2CCC[C@H]2C(=O)N2CCC[C@H]2C(=O)N[C@H](C(=O)N[C@@H](CC(N)=O)C(=O)N[C@H](C(=O)NCC(=O)N[C@@H](CO)C(=O)N[C@@H](CCCNC(=N)N)C(=O)N[C@H](C(=O)N[C@@H](Cc2ccc(O)cc2)C(N)=O)[C@@H](C)O)C(C)C)[C@@H](C)O)[C@@H](C)CC)C(C)C)[C@@H](C)O)NC(=O)[C@H]([C@@H](C)O)NC(=O)[C@H](C)NC1=O [Peptide 27, K(γE-γE-C18diacid)[CNIATC]ATQRLANFLVHSS(Dab)NFGPILPPTNVGSRTY-amide] (H-K([γGlu-γGlu-C18 diacid])CNIATCATQRLANFLVHSS[Dab]NFGPILPPTNVGSRTY-NH2; disulfide 2-7; N-terminus assumed) |
| 34 | 243 | 8210 | CC[C@H](C)[C@H](NC(=O)[C@@H]1CCCN1C(=O)CNC(=O)[C@H](Cc1ccccc1)NC(=O)[C@H](CC(N)=O)NC(=O)[C@H](CCN)NC(=O)[C@H](CO)NC(=O)[C@H](CO)NC(=O)[C@H](Cc1c[nH]cn1)NC(=O)[C@@H](NC(=O)[C@H](CC(C)C)NC(=O)[C@H](Cc1ccccc1)NC(=O)[C@H](CC(N)=O)NC(=O)[C@H](C)NC(=O)[C@H](CC(C)C)NC(=O)[C@H](CCCNC(=N)N)NC(=O)[C@H](CCC(N)=O)NC(=O)[C@@H](NC(=O)[C@H](C)NC(=O)[C@@H]1CSSC[C@H](NC(=O)[C@H](CCCCN)NC(=O)[C@@H](N)CCCCNC(=O)CC[C@H](NC(=O)CCCCCCCCCCCCCCCCC(=O)O)C(=O)O)C(=O)N[C@@H](CC(N)=O)C(=O)N[C@@H]([C@@H](C)O)C(=O)N[C@@H](C)C(=O)N[C@@H]([C@@H](C)O)C(=O)N1)[C@@H](C)O)C(C)C)C(=O)N[C@@H](CC(C)C)C(=O)N1CCC[C@H]1C(=O)N1CCC[C@H]1C(=O)N[C@H](C(=O)N[C@@H](CC(N)=O)C(=O)N[C@H](C(=O)NCC(=O)N[C@@H](CO)C(=O)N[C@@H](CC(N)=O)C(=O)N[C@H](C(=O)N[C@@H](Cc1ccc(O)cc1)C(N)=O)[C@@H](C)O)C(C)C)[C@@H](C)O [Peptide 29, K(γE-C18diacid)K[CNTATC]ATQRLANFLVHSS(Dab)NFGPILPPTNVGSNTY-amide] (H-K([γGlu-C18 diacid])KCNTATCATQRLANFLVHSS[Dab]NFGPILPPTNVGSNTY-NH2; disulfide 3-8; N-terminus assumed) |
